In US20180057505A1, “BICYCLIC HETEROARYL COMPOUNDS USEFUL AS INHIBITORS OF THE PAR-2 SIGNALING PATHWAY” (VERTEX PHARMACEUTICALS INCORPORATED, priority 2015, published 2018):

Assays:
Assay type in all cases: cell-based
[1] = target: T1, PAR2 (HT-29 cells) (Homo sapiens, UniProt P55085); experiment: Ca FLIPR TETRA assay, ANTAGONIST mode, activator 8 μM SLIGKV; conditions: HT-29 cells; activator 8 μM SLIGKV; Method A: maximal concentration of antagonist 0.1, 1 or 2 μM
T1 construct: host or cells: HT-29
T1 sequence (P55085 26-397): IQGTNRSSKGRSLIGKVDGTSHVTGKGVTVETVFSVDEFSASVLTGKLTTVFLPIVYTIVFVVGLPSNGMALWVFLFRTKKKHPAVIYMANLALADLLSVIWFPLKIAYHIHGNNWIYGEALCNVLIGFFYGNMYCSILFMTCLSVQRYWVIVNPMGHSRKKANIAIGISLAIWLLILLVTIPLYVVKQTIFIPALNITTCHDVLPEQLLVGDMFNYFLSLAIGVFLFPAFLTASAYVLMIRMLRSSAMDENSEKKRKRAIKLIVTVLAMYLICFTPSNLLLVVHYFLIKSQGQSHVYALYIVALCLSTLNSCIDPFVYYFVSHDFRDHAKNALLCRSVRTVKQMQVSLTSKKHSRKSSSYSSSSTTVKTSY
Method in brief: (§1)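 Antagonist-mode FLIPR Tetra Ca2+ read: dye-loaded HT-29 cells preincubated 30 min at r.t. with compound (first read checks agonism alone), then challenged with final 3.1 U/mL trypsin, 8 μM SLIGKV, 1 U/mL thrombin or 0.6 μM UTP. Cells plated overnight in 1% FBS McCoy's; Calcium 5 loading 45 min 37 °C plus 15 min r.t.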

[2] = target: T1, PAR2 (HT-29 cells); experiment: Ca FLIPR TETRA assay, ANTAGONIST mode, activator 3.1 U/mL trypsin; conditions: HT-29 cells; activator 3.1 U/mL trypsin; Method A: maximal concentration of antagonist 0.1, 1 or 2 μM
Method in brief: as §1

[3] = test system: Thrombin-stimulated Ca2+ response in HT-29 cells; experiment: Ca FLIPR TETRA assay, ANTAGONIST mode, activator 1 U/mL Thrombin; conditions: HT-29 cells, activator 1 U/mL Thrombin
Method in brief: as §1

[4] = test system: UTP-stimulated Ca2+ response in HT-29 cells; experiment: Ca FLIPR TETRA assay, ANTAGONIST mode, activator 0.6 μM UTP; conditions: HT-29 cells, activator 0.6 μM UTP
Method in brief: as §1

SMILES	IC50 [1] [nM]	IC50 [2] [nM]	IC50 ([3]; Homo sapiens) [nM]	IC50 ([4]; Homo sapiens) [nM]	IC50 [3] [nM]	IC50 [4] [nM]
CCC(CC)c1cc(-c2ccc(F)cc2)nc2cc(C(=O)N3CCN(c4cn[nH]c4)C(=O)C3(C)C)oc12 [Example I-301]	3	4	> 2000	> 2000		
CCC(CC)c1cc(-c2ccc(F)cc2)nc2cc(C(=O)N3CCN(C#N)C(=O)C3(C)C)oc12 [Example I-302]	14	19.5	> 2000	> 2000		
CC(C)(C)c1cc(C2CCC(Cl)(Cl)CC2)nc2cc(C(=O)N3CCN(C(=O)[C@H]4CC[C@@](C)(C(=O)O)CC4)CC3(C)C)oc12 [Example I-303]	0.4	0.6	1300	1800		
Cc1n[nH]c(C(=O)N2CCN(C(=O)c3cc4nc(C5CCC(Cl)(Cl)CC5)cc(C(C)(C)C)c4o3)C(C)(C)C2)n1 [Example I-304]	2	2.8	> 2000	> 2000		
CC(C)(C)c1cc(C2CCC(Cl)(Cl)CC2)nc2cc(C(=O)N3CCN(C(=O)[C@H]4C[C@@](C)(O)C4)CC3(C)C)oc12 [Example I-305]	1.5	3	> 2000	> 2000		
CC1(C)CCC(c2cc(C(C)(C)C)c3oc(C(=O)N4CCN(C(=O)[C@H]5CC[C@](C)(C(=O)O)CC5)CC4(C)C)cc3n2)CC1 [Example I-306]	4.7	17	1400	1800		
[2H]C([2H])([2H])N1CCN(C(=O)c2cc3nc(C4CCC(F)(F)CC4)cc(C(C)(C)C)c3o2)C(C)(C)C1=O [Example I-307]	124	210	> 2000	> 2000		
CC(C)(C)c1cc(-c2ccc(F)cc2)nc2cc(C(=O)N3CCN(C(C)(C)C)C(=O)C3(C)C)oc12 [Example I-308]	14	37	> 2000	> 2000		
Cc1cc(N2CCN(C(=O)c3cc4nc(C5CCC(C)(C)CC5)cc(C(C)(C)C)c4o3)C(C)(C)C2=O)n[nH]1 [Example I-309]	32	40	> 2000	> 2000		
CC(C)(C)c1cc(C2CCC(F)(F)CC2)nc2cc(C(=O)N3CCN(c4cn[nH]c4)C(=O)C3(C)C)oc12 [Example I-310]	61	110	> 2000	> 2000		
CC(C)(C)c1cc(C2CCC(F)(F)CC2)nc2cc(C(=O)N3CCN(C(=O)c4nnc[nH]4)CC3(C)C)oc12 [Example I-311]	81	83			> 2000	> 2000
CN1CCN(C(=O)c2cc3nc(C4CCC(F)(F)CC4)cc(C(C)(C)C)c3o2)C(C)(C)C1=O [Example I-312]	170	260	> 2000	> 2000		
Cc1c[nH]nc1N1CCN(C(=O)c2cc3nc(C4CCC(C)(C)CC4)cc(C(C)(C)C)c3o2)C(C)(C)C1=O [Example I-313]	75	310	> 2000	> 2000		
CC(C)(C)c1cc(-c2ccc(F)cc2)nc2cc(C(=O)N3CCN(C(=O)[C@H]4C[C@@](C)(O)C4)C(C)(C)C3)oc12 [Example I-314]	190	730	> 2000	> 2000		
CC1(C)CCC(c2cc(C(C)(C)C)c3oc(C(=O)N4CCN(c5cn[nH]c5)C(=O)C4(C)C)cc3n2)CC1 [Example I-315]	5.7	12	> 2000	> 2000		
CN1CCN(C(=O)c2cc3nc(C4CCC(C)(C)CC4)cc(C(C)(C)C)c3o2)C(C)(C)C1=O [Example I-317]	8.2	10	> 2000	> 2000		
Cn1cnnc1N1CCN(C(=O)c2cc3nc(-c4ccc(Cl)c(F)c4)cc(C(C)(C)C)c3o2)C(C)(C)C1 [Example I-318]	2.8	4.6	> 2000	> 2000		
CC(C)[C@@H](CC(=O)N1CCN(C(=O)c2cc3nc(C4CCC(C)(C)CC4)cc(C(C)(C)C)c3o2)C(C)(C)C1)C(=O)O [Example I-319]	0.2	0.2	> 2000	> 2000		
